# Source: article PMC11876601 (Molecular Systems Biology, 2025)
# Where two headings read alike, the source gives them in different places.
# Tests used:
# Test in all cases: cells
# MiaPaCa-2 [1] = tested on: MiaPaCa-2; set-up: Viability of PDAC cell lines, ATPlite luminescence, 11-dose single-agent curve fit; settings: Homo sapiens, MIA PaCa-2, 72 h, read-out: EC50 [nM]
# In short: (§1)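 cells (1000 to 5000 per well) seeded 24 h before drug addition in a screen at 0.2% final DMSO. Controls were drug-free wells (negative) and 5 µM staurosporine (positive).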
# Capan-1 = tested on: Capan-1; set-up: Viability of PDAC cell lines, ATPlite luminescence, 11-dose single-agent curve fit; settings: Homo sapiens, CAPAN-1, 72 h, read-out: EC50 [nM]
# In short: as §1
# AsPC-1 [2] = tested on: AsPC-1; set-up: Viability of PDAC cell lines, ATPlite luminescence, 11-dose single-agent curve fit; settings: Homo sapiens, ASPC1, 72 h, read-out: EC50 [nM]
# In short: as §1
# FAMPAC [3] = tested on: FAMPAC; set-up: Viability of PDAC cell lines, ATPlite luminescence, 11-dose single-agent curve fit; settings: 72 h, read-out: EC50 [nM]
# In short: as §1
# PSN-1 [4] = tested on: PSN-1; set-up: Viability of PDAC cell lines, ATPlite luminescence, 11-dose single-agent curve fit; settings: Homo sapiens, PSN1, 72 h, read-out: EC50 [nM]
# In short: as §1
# Suit2-07 [5] = tested on: Suit2-07; set-up: Viability of PDAC cell lines, ATPlite luminescence, 11-dose single-agent curve fit; settings: 72 h, read-out: EC50 [nM]
# In short: as §1
# HuP-T4 = tested on: HuP-T4; set-up: Viability of PDAC cell lines, ATPlite luminescence, 11-dose single-agent curve fit; settings: Homo sapiens, HuP-T4, 72 h, read-out: EC50 [nM]
# In short: as §1
# BxPC-3 [6] = tested on: BxPC-3; set-up: Viability of PDAC cell lines, ATPlite luminescence, 11-dose single-agent curve fit; settings: Homo sapiens, BXPC-3, 72 h, read-out: EC50 [nM]
# In short: as §1
# PaTu-8988-T [7] = tested on: PaTu-8988-T; set-up: Viability of PDAC cell lines, ATPlite luminescence, 11-dose single-agent curve fit; settings: Homo sapiens, PaTu 8988t, 72 h, read-out: EC50 [nM]
# In short: as §1
# PANC-1 = tested on: PANC-1; set-up: Viability of PDAC cell lines, ATPlite luminescence, 11-dose single-agent curve fit; settings: Homo sapiens, PANC-1, 72 h, read-out: EC50 [nM]
# In short: as §1
# Dan-G [8] = tested on: Dan-G; set-up: ATPlite luminescence viability of PDAC cell lines, 11-dose single-agent curves, 4-parameter fit; settings: 72 h, read-out: EC50 [nM]
# In short: (§2)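 cells (1000 to 5000 per well) seeded 24 h before drug addition in a combination screen at 0.2% final DMSO. Controls were drug-free wells (negative) and 5 µM staurosporine (positive).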
# Colo-357 [9] = tested on: Colo-357; set-up: ATPlite luminescence viability of PDAC cell lines, 11-dose single-agent curves, 4-parameter fit; settings: Homo sapiens, COLO357, 72 h, read-out: EC50 [nM]
# In short: as §2
# HPDE [10] = tested on: HPDE; set-up: ATPlite luminescence viability of PDAC cell lines, 11-dose single-agent curves, 4-parameter fit; settings: HPDE, 72 h, read-out: EC50 [nM]
# In short: as §2
# HPDE [11] = tested on: HPDE; set-up: Viability of PDAC cell lines, ATPlite luminescence, 11-dose single-agent curve fit; settings: HPDE, 72 h, read-out: EC50 [nM]
# In short: as §1
# MiaPaCa-2 [12] = tested on: MiaPaCa-2; set-up: ATPlite luminescence viability of PDAC cell lines, 11-dose single-agent curves, 4-parameter fit; settings: Homo sapiens, MIA PaCa-2, 72 h, read-out: EC50 [nM]
# In short: as §2
# AsPC-1 [13] = tested on: AsPC-1; set-up: ATPlite luminescence viability of PDAC cell lines, 11-dose single-agent curves, 4-parameter fit; settings: Homo sapiens, ASPC1, 72 h, read-out: EC50 [nM]
# In short: as §2
# BxPC-3 [14] = tested on: BxPC-3; set-up: ATPlite luminescence viability of PDAC cell lines, 11-dose single-agent curves, 4-parameter fit; settings: Homo sapiens, BXPC-3, 72 h, read-out: EC50 [nM]
# In short: as §2
# PaTu-8988-T [15] = tested on: PaTu-8988-T; set-up: ATPlite luminescence viability of PDAC cell lines, 11-dose single-agent curves, 4-parameter fit; settings: Homo sapiens, PaTu 8988t, 72 h, read-out: EC50 [nM]
# In short: as §2
# Colo-357 [16] = tested on: Colo-357; set-up: Viability of PDAC cell lines, ATPlite luminescence, 11-dose single-agent curve fit; settings: Homo sapiens, COLO357, 72 h, read-out: EC50 [nM]
# In short: as §1
# FAMPAC [17] = tested on: FAMPAC; set-up: ATPlite luminescence viability of PDAC cell lines, 11-dose single-agent curves, 4-parameter fit; settings: 72 h, read-out: EC50 [nM]
# In short: as §2
# PSN-1 [18] = tested on: PSN-1; set-up: ATPlite luminescence viability of PDAC cell lines, 11-dose single-agent curves, 4-parameter fit; settings: Homo sapiens, PSN1, 72 h, read-out: EC50 [nM]
# In short: as §2
# Suit2-07 [19] = tested on: Suit2-07; set-up: ATPlite luminescence viability of PDAC cell lines, 11-dose single-agent curves, 4-parameter fit; settings: 72 h, read-out: EC50 [nM]
# In short: as §2
# Dan-G [20] = tested on: Dan-G; set-up: Viability of PDAC cell lines, ATPlite luminescence, 11-dose single-agent curve fit; settings: 72 h, read-out: EC50 [nM]
# In short: as §1
EC50 (MiaPaCa-2 [1]),EC50 (AsPC-1 [2]),EC50 (BxPC-3 [6]),EC50 (PANC-1),EC50 (Colo-357 [9]),EC50 (MiaPaCa-2 [12]),EC50 (AsPC-1 [13]),EC50 (BxPC-3 [14]),EC50 (Colo-357 [16]),SMILES,EC50 (Capan-1),EC50 (FAMPAC [3]),EC50 (PSN-1 [4]),EC50 (Suit2-07 [5]),EC50 (HuP-T4),EC50 (PaTu-8988-T [7]),EC50 (Dan-G [8]),EC50 (HPDE [10]),EC50 (PaTu-8988-T [15]),EC50 (FAMPAC [17]),EC50 (Suit2-07 [19]),further results
> 10000 nM,> 10000 nM,8320 nM,> 10000 nM,815 nM,–,–,–,–,CS(=O)(=O)CCNCc1ccc(-c2ccc3ncnc(Nc4ccc(OCc5cccc(F)c5)c(Cl)c4)c3c2)o1 [Lapatinib],> 10000 nM,> 10000 nM,> 10000 nM,7910 nM,> 10000 nM,> 10000 nM,3780 nM,> 10000 nM,–,–,–,–
–,–,–,> 10000 nM,355 nM,1400 nM,3740 nM,1640 nM,–,Cc1nc(NC(=O)N2CCC[C@H]2C(N)=O)sc1-c1ccnc(C(C)(C)C(F)(F)F)c1 [Alpelisib],5110 nM,3750 nM,269 nM,2060 nM,21.8 nM,–,661 nM,–,3930 nM,–,–,EC50 (HPDE [11]): 7680 nM
–,–,–,77.7 nM,–,1030 nM,> 10000 nM,4940 nM,9780 nM,COC(=O)c1ccc2c(c1)NC(=O)/C2=C(\Nc1ccc(N(C)C(=O)CN2CCN(C)CC2)cc1)c1ccccc1 [Nintedanib],10200 nM,–,–,–,146 nM,–,6960 nM,–,6690 nM,> 10000 nM,> 10000 nM,EC50 (HPDE [11]): 1550 nM; EC50 (PSN-1 [18]): 8030 nM
2570 nM,515 nM,847 nM,8860 nM,464 nM,–,–,–,–,COc1cc2ncnc(Nc3cccc(Cl)c3F)c2cc1OC(=O)N1CCN(C)C[C@H]1C [AZD3759],1200 nM,2880 nM,2560 nM,1330 nM,2590 nM,1690 nM,445 nM,483 nM,–,–,–,–
–,–,–,> 10000 nM,–,589 nM,1270 nM,467 nM,611 nM,CCn1c(=O)c(-c2cc(NC(=O)Nc3ccccc3)c(F)cc2Br)cc2cnc(NC)cc21 [Ripretinib],758 nM,–,–,–,592 nM,–,501 nM,901 nM,717 nM,912 nM,431 nM,EC50 (PSN-1 [18]): 582 nM
–,–,> 10000 nM,> 10000 nM,–,416 nM,1540 nM,–,4180 nM,C[C@]1(O)C[C@@H](c2nc(-c3ccc4ccc(-c5ccccc5)nc4c3)c3c(N)nccn32)C1 [Linsitinib],1750 nM,4850 nM,7340 nM,–,21.6 nM,6100 nM,–,7060 nM,–,–,239 nM,EC50 (Dan-G [20]): 3840 nM
–,–,–,6620 nM,1020 nM,1290 nM,3210 nM,296 nM,–,COC(=O)N[C@@H](C)CNc1nccc(-c2cn(C(C)C)nc2-c2cc(Cl)cc(NS(C)(=O)=O)c2F)n1 [Encorafenib],453 nM,–,–,–,–,1220 nM,620 nM,–,–,943 nM,1790 nM,EC50 (HPDE [11]): 1140 nM; EC50 (PSN-1 [18]): 800 nM
> 10000 nM,8920 nM,9500 nM,2920 nM,–,–,–,–,> 10000 nM,CNC(=O)c1cccc2cc(Oc3ccnc4cc(OCC5(N)CC5)c(OC)cc34)ccc12 [Lucitanib],> 10000 nM,> 10000 nM,8180 nM,5330 nM,> 10000 nM,5920 nM,–,9210 nM,–,–,–,EC50 (Dan-G [20]): 665 nM
–,–,–,> 10000 nM,–,2650 nM,966 nM,3060 nM,3500 nM,O=C1CCc2c(Oc3ccc4c(c3)[C@@H]3[C@H](O4)[C@H]3c3nc4cc(C(F)(F)F)ccc4[nH]3)ccnc2N1 [Lifirafenib],9370 nM,–,–,–,4500 nM,–,2000 nM,1980 nM,2540 nM,2510 nM,> 10000 nM,EC50 (PSN-1 [18]): 696 nM
–,–,–,3980 nM,–,2050 nM,3450 nM,4270 nM,3150 nM,COCc1c(-c2cc3cc(C)cc(OC)c3s2)c2c(N)ncnn2c1CN1CCNC(=O)C1 [Rogaratinib],5610 nM,–,–,–,24.2 nM,–,3460 nM,–,3870 nM,3300 nM,> 10000 nM,EC50 (HPDE [11]): 7330 nM; EC50 (PSN-1 [18]): 3270 nM
1760 nM,416 nM,5260 nM,716 nM,2260 nM,–,–,–,–,C#Cc1cccc(Nc2ncnc3cc4c(cc23)OCCOCCOCCO4)c1 [Icotinib],1900 nM,6990 nM,42 nM,101 nM,0.21 nM,91.9 nM,1530 nM,1000 nM,–,–,–,–
1840 nM,46.1 nM,128 nM,1170 nM,–,–,–,–,373 nM,C=CC(=O)N1CCC[C@@H](n2nc(-c3ccc(Oc4ccccc4)cc3)c3c(N)ncnc32)C1 [Ibrutinib],317 nM,28.3 nM,1100 nM,396 nM,54.2 nM,166 nM,56.6 nM,521 nM,–,–,–,–
4440 nM,390 nM,–,> 10000 nM,676 nM,–,–,1760 nM,–,C[C@@H]1COC(Nc2ccc3ncnc(Nc4ccc(OCc5nccs5)c(Cl)c4)c3c2)=N1 [Varlitinib],724 nM,–,2940 nM,2070 nM,40.5 nM,861 nM,630 nM,1930 nM,–,> 10000 nM,–,–
–,–,–,> 10000 nM,–,5290 nM,6710 nM,5220 nM,8230 nM,C=CC(=O)Nc1cccc(Oc2nc(Nc3ccc(N4CCN(C)CC4)cc3)nc3ccsc23)c1 [Olmutinib],> 10000 nM,–,–,–,2230 nM,–,> 10000 nM,3900 nM,> 10000 nM,> 10000 nM,7100 nM,EC50 (PSN-1 [18]): 7020 nM
9130 nM,300 nM,–,3410 nM,–,–,–,> 10000 nM,2200 nM,C=CC(=O)N1CCC([C@@H]2CCNc3c(C(N)=O)c(-c4ccc(Oc5ccccc5)cc4)nn32)CC1 [Zanubrutinib],2290 nM,75.9 nM,132 nM,7180 nM,796 nM,547 nM,–,3010 nM,–,–,–,EC50 (Dan-G [20]): 578 nM
